{
  "source": "paper PMC3742231",
  "about": "(International Journal of Molecular Sciences, 2013)",
  "key": {"[1]": {"molecular_target": "T1, CYP2B6 (Homo sapiens, UniProt P20813)", "T1 sequence (P20813 1-491)": "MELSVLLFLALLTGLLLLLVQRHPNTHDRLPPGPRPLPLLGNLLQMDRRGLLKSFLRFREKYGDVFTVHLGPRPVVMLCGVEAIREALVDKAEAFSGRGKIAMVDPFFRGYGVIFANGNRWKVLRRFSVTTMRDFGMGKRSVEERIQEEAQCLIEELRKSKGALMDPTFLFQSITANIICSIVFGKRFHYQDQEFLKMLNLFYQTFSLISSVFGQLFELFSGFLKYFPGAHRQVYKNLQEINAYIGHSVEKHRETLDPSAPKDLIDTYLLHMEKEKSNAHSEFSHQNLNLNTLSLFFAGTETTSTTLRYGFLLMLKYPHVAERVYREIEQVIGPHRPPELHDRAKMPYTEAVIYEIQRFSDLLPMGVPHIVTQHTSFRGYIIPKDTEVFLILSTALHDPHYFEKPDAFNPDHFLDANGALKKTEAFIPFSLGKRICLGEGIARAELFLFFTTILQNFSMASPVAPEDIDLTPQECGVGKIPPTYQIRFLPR", "assay": "biochemical", "procedure": "(§1) Human liver microsomes were prepared and pooled from ten human livers (HL20–24,28–32) as previously described. Human liver samples were obtained from the University Hospital of Oulu as surplus tissue from cadaver kidney transplant donors. The collection of surplus tissue was approved by the Ethics Committee of the Medical Faculty of the University of Oulu, Finland. All donors were Caucasians ranging in age from 21 to 62 years; four were female and six were male. Detailed information on each donor has been published previously. Protein concentrations were measured using the Bradford method.\n(§2) In vitro inhibition of CYP isoforms was first assessed using the N-in-one approach (also called the cocktail approach). CYP-selective substrates and reactions are listed in Table 1; concentrations were roughly at or below the respective Michaelis-Menten coefficients. […] A Micromass LCT time-of-flight high-resolution mass spectrometer (Micromass Ltd., Manchester, UK) equipped with a Z-spray electrospray ionization source was used for the monitoring of CYP-selective reactions. Integrated mass chromatogram peak areas were normalized versus internal standards before comparing metabolites in different preparations. More details of the assay are available in previous publications.\n(§3) Dixon, Lineweaver-Burk, Hanes, and Hofstee plots were used for the analysis of the type of inhibition."}, "[2]": {"molecular_target": "CYP2C19 (Homo sapiens, UniProt P33261)", "sequence (P33261 whole entry)": "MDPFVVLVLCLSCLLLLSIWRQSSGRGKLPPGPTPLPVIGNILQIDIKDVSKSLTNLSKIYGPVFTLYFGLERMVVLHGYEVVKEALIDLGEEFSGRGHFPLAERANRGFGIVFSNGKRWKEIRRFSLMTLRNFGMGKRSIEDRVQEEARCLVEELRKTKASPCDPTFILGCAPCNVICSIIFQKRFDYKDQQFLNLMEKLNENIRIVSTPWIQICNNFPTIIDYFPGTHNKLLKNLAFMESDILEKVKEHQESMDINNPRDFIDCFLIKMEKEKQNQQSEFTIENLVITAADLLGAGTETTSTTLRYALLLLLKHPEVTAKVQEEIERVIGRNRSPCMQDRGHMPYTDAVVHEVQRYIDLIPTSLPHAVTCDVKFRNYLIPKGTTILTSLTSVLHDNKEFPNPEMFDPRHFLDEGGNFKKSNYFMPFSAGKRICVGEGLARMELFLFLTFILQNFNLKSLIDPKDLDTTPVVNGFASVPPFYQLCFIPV", "assay": "biochemical", "conditions": "for pIC50: human liver microsomes, probe 2 μM", "procedure": "as §1, §2, §3"}, "[3]": {"molecular_target": "T2, CYP2A6 (Homo sapiens, UniProt P11509)", "T2 sequence (P11509 1-494)": "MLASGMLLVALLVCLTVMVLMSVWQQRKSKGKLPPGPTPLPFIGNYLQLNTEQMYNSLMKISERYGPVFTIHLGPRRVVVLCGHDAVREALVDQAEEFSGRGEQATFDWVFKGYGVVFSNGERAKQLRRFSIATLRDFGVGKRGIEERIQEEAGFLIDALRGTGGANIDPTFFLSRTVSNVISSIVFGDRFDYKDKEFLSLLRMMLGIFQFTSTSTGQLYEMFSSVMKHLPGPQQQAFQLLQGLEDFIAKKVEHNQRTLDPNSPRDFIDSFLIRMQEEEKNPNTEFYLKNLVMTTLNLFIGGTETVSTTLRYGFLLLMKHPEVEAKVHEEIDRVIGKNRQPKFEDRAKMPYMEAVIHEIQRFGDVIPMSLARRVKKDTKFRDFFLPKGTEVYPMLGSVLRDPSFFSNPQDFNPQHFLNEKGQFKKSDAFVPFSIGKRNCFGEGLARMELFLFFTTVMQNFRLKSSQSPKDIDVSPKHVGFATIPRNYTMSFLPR", "assay": "N-in-one CYP inhibition assay in human liver microsomes", "procedure": "as §1, §2"}, "[4]": {"molecular_target": "CYP2E1 (Homo sapiens, UniProt P05181)", "sequence (P05181 whole entry)": "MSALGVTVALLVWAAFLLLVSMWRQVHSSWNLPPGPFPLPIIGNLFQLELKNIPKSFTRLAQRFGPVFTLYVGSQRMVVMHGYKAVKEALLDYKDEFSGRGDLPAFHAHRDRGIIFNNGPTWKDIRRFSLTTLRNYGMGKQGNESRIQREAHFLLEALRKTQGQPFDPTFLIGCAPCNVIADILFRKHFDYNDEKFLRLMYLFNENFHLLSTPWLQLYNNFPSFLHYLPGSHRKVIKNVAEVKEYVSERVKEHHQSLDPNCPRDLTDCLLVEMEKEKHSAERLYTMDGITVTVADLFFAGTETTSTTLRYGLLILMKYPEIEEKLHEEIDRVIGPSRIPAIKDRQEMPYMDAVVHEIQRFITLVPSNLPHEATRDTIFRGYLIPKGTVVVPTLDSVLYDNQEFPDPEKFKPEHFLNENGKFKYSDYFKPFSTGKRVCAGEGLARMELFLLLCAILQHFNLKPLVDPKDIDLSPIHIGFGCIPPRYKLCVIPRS", "assay": "N-in-one CYP inhibition assay in human liver microsomes", "procedure": "as §1, §2"}, "[5]": {"molecular_target": "T3, CYP1A2 (Homo sapiens, UniProt P05177)", "T3 sequence (P05177 1-516)": "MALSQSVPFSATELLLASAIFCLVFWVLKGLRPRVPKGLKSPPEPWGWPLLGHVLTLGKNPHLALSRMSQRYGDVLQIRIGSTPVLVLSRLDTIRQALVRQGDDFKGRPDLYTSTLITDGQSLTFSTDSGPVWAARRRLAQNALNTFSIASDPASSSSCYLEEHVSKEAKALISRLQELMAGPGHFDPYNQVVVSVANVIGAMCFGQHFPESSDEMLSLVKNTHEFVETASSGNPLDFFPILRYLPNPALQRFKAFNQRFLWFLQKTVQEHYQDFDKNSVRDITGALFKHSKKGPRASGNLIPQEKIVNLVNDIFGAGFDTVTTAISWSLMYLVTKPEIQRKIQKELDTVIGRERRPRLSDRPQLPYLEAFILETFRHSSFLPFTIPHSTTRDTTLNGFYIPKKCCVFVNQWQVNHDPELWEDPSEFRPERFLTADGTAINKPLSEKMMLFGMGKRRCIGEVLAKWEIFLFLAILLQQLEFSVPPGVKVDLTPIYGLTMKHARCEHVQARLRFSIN", "assay": "biochemical", "procedure": "as §1, §2"}, "[6]": {"molecular_target": "CYP3A4 (Homo sapiens, UniProt P08684)", "sequence (P08684 whole entry)": "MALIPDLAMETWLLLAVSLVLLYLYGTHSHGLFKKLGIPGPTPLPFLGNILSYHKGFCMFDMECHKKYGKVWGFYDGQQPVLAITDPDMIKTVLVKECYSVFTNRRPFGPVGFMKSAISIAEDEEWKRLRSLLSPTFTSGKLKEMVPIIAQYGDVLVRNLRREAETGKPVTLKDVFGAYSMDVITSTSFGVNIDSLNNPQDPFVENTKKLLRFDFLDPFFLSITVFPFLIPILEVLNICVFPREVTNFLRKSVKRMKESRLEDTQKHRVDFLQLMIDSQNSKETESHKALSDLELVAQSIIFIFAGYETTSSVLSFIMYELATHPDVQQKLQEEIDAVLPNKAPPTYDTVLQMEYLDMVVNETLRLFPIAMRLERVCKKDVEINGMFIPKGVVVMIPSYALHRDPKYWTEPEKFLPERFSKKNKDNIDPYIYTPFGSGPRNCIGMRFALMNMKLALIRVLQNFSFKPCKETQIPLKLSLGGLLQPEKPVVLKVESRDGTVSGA", "assay": "biochemical", "conditions": "human liver microsomes", "procedure": "as §1, §2"}, "[7]": {"tested_on": "CYP enzyme activities", "conditions": "cultured human hepatocytes", "procedure": "(§4) Freshly isolated human hepatocytes were obtained from the UK Human Tissue Bank (Leicester, UK).\n(§5) Omeprazole (CYP1A2 inducer; 30 μM), phenobarbital (CYP2B6 inducer; 1 mM) and rifampicin (CYP2C9, CYP2C19, and CYP3A4 inducer; 50 μM) dissolved in dimethyl sulfoxide (0.5% v/v final), served as reference inducers."}, "[8]": {"tested_on": "CYP1A2", "conditions": "0.2, 2 and 20 μM for 48 h", "procedure": "as §4, §5"}, "[9]": {"tested_on": "CYP2C19", "conditions": "0.2, 2 and 20 μM for 48 h", "procedure": "as §4, §5"}, "[10]": {"tested_on": "CYP2C9", "conditions": "0.2, 2 and 20 μM for 48 h", "procedure": "as §4, §5"}, "[11]": {"tested_on": "CYP3A4", "conditions": "20 μM, 48 h", "procedure": "as §4, §5"}, "[12]": {"conditions": "cited from earlier work"}, "[13]": {"conditions": "ref data on file, cited from earlier work"}, "[14]": {"conditions": "steady state, converted from ng/mL"}},
  "note": "pIC50: −log10 of the molar value. Read-outs that look alike come from different tables or passages of the source.",
  "data": [
    {"smiles": "OCCOc1ccc(/C(=C(/CCCl)c2ccccc2)c2ccccc2)cc1", "note": "[Ospemifene]", "values": [
      {"measurement": "pIC50", "setting": "[1]", "result": 5.11},
      {"measurement": "Type of inhibition", "setting": "[1]; results not shown", "result": "competitive"},
      {"measurement": "pIC50", "setting": "[2]; IC50, Omeprazole 5-hydroxylation", "result": 4.65},
      {"measurement": "pIC50", "setting": "[2]; IC50, Omeprazole demethylation", "result": 4.33},
      {"measurement": "Type of inhibition", "setting": "[2]; results not shown", "result": "noncompetitive"},
      {"measurement": "pIC50", "setting": "[3]", "result": "< 4.00"},
      {"measurement": "pIC50", "setting": "[4]", "result": "< 4.00"},
      {"measurement": "pIC50", "setting": "[5]", "result": "< 4.00"},
      {"measurement": "pIC50", "setting": "[6]; IC50, Midazolam 1′-hydroxylation, probe 0.4 μM", "result": "< 4.00"},
      {"measurement": "pIC50", "setting": "[6]; IC50, Omeprazole 3-hydroxylation, probe 2 μM", "result": 4.42},
      {"measurement": "pIC50", "setting": "[6]; IC50, Omeprazole sulfoxidation, probe 2 μM", "result": "< 4.00"},
      {"measurement": "pIC50", "setting": "[6]; IC50, Testosterone 6β-hydroxylation, probe 1 μM", "result": "< 4.00"},
      {"measurement": "Induction of CYPs", "setting": "[7]", "result": "≤ 2.4", "unit": "fold"},
      {"measurement": "Change in CYP1A2 activity", "setting": "[8]", "result": "did not cause any relevant changes"},
      {"measurement": "Change in CYP2C19 activity", "setting": "[9]", "result": "did not cause any relevant changes"},
      {"measurement": "Change in CYP2C9 activity", "setting": "[10]", "result": "did not cause any relevant changes"},
      {"measurement": "Induction of CYP3A4 activity", "setting": "[11]", "result": "approximately two-fold"},
      {"measurement": "average plasma half-life", "setting": "[12]; introduction, no reference given", "result": "about 20 h"},
      {"measurement": "Cav at steady state", "setting": "[12]; [14]", "result": "~600", "unit": "nM"},
      {"measurement": "Cmin at steady state", "setting": "[12]; [14]", "result": "~250", "unit": "nM"},
      {"measurement": "Cmax", "setting": "[12]; steady state, converted from ng/mL, read-out: mean Cmax at steady state", "result": "~2000", "unit": "nM"},
      {"measurement": "Cav at steady state", "setting": "[12]; steady state", "result": 227, "unit": "ng/mL"},
      {"measurement": "Cmin at steady state", "setting": "[12]; steady state", "result": 94, "unit": "ng/mL"},
      {"measurement": "mean Cmax at steady state", "setting": "[12]; steady state", "result": 785, "unit": "ng/mL"},
      {"measurement": "Change of serum concentrations of ospemifene", "setting": "[13]; fluconazole pretreatment", "result": "increased"},
      {"measurement": "Change of serum concentrations of ospemifene", "setting": "[13]; ketoconazole pretreatment", "result": "increased"},
      {"measurement": "Change of serum concentrations of ospemifene", "setting": "[13]; omeprazole pretreatment", "result": "minimally changed"},
      {"measurement": "Change of serum concentrations of ospemifene", "setting": "[13]; rifampicin pretreatment", "result": "reduced"}
    ]}
  ]
}
